Assay results published in paper PMC10529921, “Structure–Activity Relationship of Novel ACE Inhibitory Undecapeptides from Stropharia rugosoannulata by Molecular Interactions and Activity Analyses” (Foods, 2023).
Where a name gives a salt, the structure may show the parent alone.

Columns and labels:
SHR rats [1] = experiment: Organ coefficients in SHR rats; format: in vivo, rat (SHR); conditions: 10 mg/kg, single gavage
Experimental: (§1) Eleven-week-old male SHR rats and Wistar rats (SiPeiFu (Suzhou) Biotechnology Co., Ltd., Suzhou, China) weighing 200–250 g were used. After 7 d of acclimatization feeding, SHR rats and Wistar rats were randomly grouped into 6 rats per group for a single gavage administration treatment. The undecapeptide and the commercial antihypertensive drug Benazepril hydrochloride were administered in a gavage dose of 10 mg/kg body weight (the recommended dose of Benazepril hydrochloride). SHR rats with regular saline treatment were used as the blank control group. The systolic blood pressure (SBP) and diastolic blood pressure (DBP) of rats were monitored by the Softron BP system (Softron BP-2010A, Tokyo, Japan) at 0, 2, 4, 6, 8, and 24 h after drug administration. At the end of the treatment, the organ coefficients were calculated (organ weight as a percentage of the body weight of the rat, mg/g).
(§2) Data from the in vivo tests were presented as means ± standard deviations of 6 measurements.

Wistar rats = conditions: 10 mg/kg, single gavage; low body weight in two rats given as main reason
Experimental: as §1, §2

SHR rats [2] = experiment: Antihypertensive effect after single gavage in SHR rats; format: in vivo, rat (SHR); conditions: n = 6
Experimental: as §1, §2

[3] = 10 mg/kg, most significant effect at 8 h, mean ± SD

Compound	Effect on organs, SHR (SHR rats [1])	Heart organ coefficient vs blank control, SHR (SHR rats [1]; significance p < 0.05)	Kidney organ coefficient, Wistar (Wistar rats)	Blood pressure lowering (SBP and DBP), SHR (SHR rats [2]; 10 mg/kg, 2, 4, 6 and 8 h)	Decrease in DBP, SHR (SHR rats [2]; [3]) [mmHg]	Decrease in SBP, SHR (SHR rats [2]; [3]) [mmHg]	Rebound of blood pressure values, SHR (SHR rats [2]; 10 mg/kg)	Time of most significant blood pressure lowering effect, SHR (SHR rats [2]; 10 mg/kg) [h]
CC(C)C[C@H](NC(=O)[C@@H]1CCCN1C(=O)[C@H](CCCNC(=N)N)NC(=O)[C@H](CC(C)C)NC(=O)[C@H](CCCNC(=N)N)NC(=O)[C@H](CC(=O)O)NC(=O)[C@H](Cc1ccc(O)cc1)NC(=O)[C@H](CC(=O)O)NC(=O)[C@H](CCC(=O)O)NC(=O)[C@H](CCC(N)=O)NC(=O)CN)C(=O)O	less impact on the organs of SHR rats	no significant difference	considerably higher					
CCOC(=O)[C@H](CCc1ccccc1)N[C@H]1CCc2ccccc2N(CC(=O)O)C1=O [Benazepril hydrochloride]				better blood pressure lowering effects after 2, 4, 6, and 8 h	39.17 ± 1.81	54.94 ± 1.79	began to rebound after 8 h	8
